For one assay, the system named is D-336MG. The experiment in a line: cells. In kind it is functional, cell-based, Homo sapiens. Particulars: Homo sapiens, D-336MG.
The subject of the next assay is Daudi. The experiment in a line: cells. In kind it is functional, cell-based, Homo sapiens. The note with it: Homo sapiens, Daudi.
For a further assay, the system named is EB-3. The experiment in a line: cells. The note with it: Homo sapiens, EB-3. In kind it is functional, cell-based, Homo sapiens.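 Also: human EB-3 cells, growth inhibition read out via a cell viability assay.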
The test system of a further assay is MC-CAR. The experiment in a line: cells. The note with it: Homo sapiens, MC-CAR. Type of assay: functional, cell-based, Homo sapiens.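 Also: growth inhibition of the human MC-CAR cell line, read out by a cell viability assay.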
In the next assay the test system is NCI-H2171. The experiment in a line: cells. In kind it is functional, cell-based, Homo sapiens. The note with it: Homo sapiens, NCI-H2171.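 Also: growth inhibition of human NCI-H2171 cells, read out by a cell viability assay.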
The next assay deals with NCI-H322M. Description: cells. In kind it is functional, cell-based, Homo sapiens. Particulars: Homo sapiens, NCI-H322M.
A further assay relates to NCI-H716. The experiment in a line: cells. Type of assay: functional, cell-based, Homo sapiens. Particulars: Homo sapiens, NCI-H716.
The next assay deals with NCI-H748. Description: cells. In kind it is functional, cell-based, Homo sapiens. Particulars: Homo sapiens, NCI-H748.
Another assay concerns PF-382. The experiment in a line: cells. In kind it is functional, cell-based, Homo sapiens. The note with it: Homo sapiens, PF-382.
The next assay concerns REH. The experiment in a line: cells. Type of assay: functional, cell-based, Homo sapiens. The note with it: Homo sapiens, REH.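 Also: growth inhibition of REH cells determined with a cell viability read-out.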
The subject of the next assay is RL. Description: cells. Type of assay: functional, cell-based, Homo sapiens. Particulars: Homo sapiens, RL.
The subject of the next assay is Raji. The experiment in a line: cells. Type of assay: functional, cell-based, Homo sapiens. Particulars: Homo sapiens, Raji.
Another assay concerns SCLC-21H. Description: cells. Type of assay: functional, cell-based, Homo sapiens. The note with it: Homo sapiens, SCLC-21H.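 Also: growth inhibition of cultured human SCLC-21H cells, read out with a cell viability assay.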
A further assay deals with SIG-M5. Description: cells. In kind it is functional, cell-based, Homo sapiens. The note with it: Homo sapiens, SIG-M5.
Another assay relates to ARH-77. The experiment in a line: cells. In kind it is functional, cell-based, Homo sapiens. The note with it: Homo sapiens, ARH-77.
The next assay relates to BC1 cell line. Description: SANGER: Inhibition of human BC-1 cell growth in a cell viability assay. Particulars: Homo sapiens, BC1. In kind it is functional, cell-based.
The subject of another assay is CAL-148. The experiment in a line: cells. In kind it is functional, cell-based, Homo sapiens. Particulars: Homo sapiens, CAL-148.
Another assay has as its system THP-1. Description: cells. In kind it is functional, cell-based, Homo sapiens. The note with it: Homo sapiens, THP-1.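 Also: growth inhibition of THP-1 cells, read out via a cell viability assay.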
The test system of the next assay is WSU-NHL. The experiment in a line: cells. Type of assay: functional, cell-based, Homo sapiens. The note with it: Homo sapiens, WSU-NHL.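 Also: growth inhibition of human WSU-NHL cells, read out with a cell viability assay.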

Each structure is given as a SMILES string.

Description for ARH-77: SANGER: Inhibition of human ARH-77 cell growth in a cell viability assay.
Description for CAL-148: SANGER: Inhibition of human CAL-148 cell growth in a cell viability assay.
Description for D-336MG: SANGER: Inhibition of human D-336MG cell growth in a cell viability assay.
Description for Daudi: SANGER: Inhibition of human Daudi cell growth in a cell viability assay.
Description for EB-3: SANGER: Inhibition of human EB-3 cell growth in a cell viability assay.
Description for MC-CAR: SANGER: Inhibition of human MC-CAR cell growth in a cell viability assay.
Description for NCI-H2171: SANGER: Inhibition of human NCI-H2171 cell growth in a cell viability assay.
Description for NCI-H322M: SANGER: Inhibition of human NCI-H322M cell growth in a cell viability assay.
Description for NCI-H716: SANGER: Inhibition of human NCI-H716 cell growth in a cell viability assay.
Description for NCI-H748: SANGER: Inhibition of human NCI-H748 cell growth in a cell viability assay.
Description for PF-382: SANGER: Inhibition of human PF-382 cell growth in a cell viability assay.
Description for REH: SANGER: Inhibition of human REH cell growth in a cell viability assay.
Description for RL: SANGER: Inhibition of human RL cell growth in a cell viability assay.
Description for Raji: SANGER: Inhibition of human Raji cell growth in a cell viability assay.
Description for SCLC-21H: SANGER: Inhibition of human SCLC-21H cell growth in a cell viability assay.
Description for SIG-M5: SANGER: Inhibition of human SIG-M5 cell growth in a cell viability assay.
Description for THP-1: SANGER: Inhibition of human THP-1 cell growth in a cell viability assay.
Description for WSU-NHL: SANGER: Inhibition of human WSU-NHL cell growth in a cell viability assay.

With `CCN(CC)CCNC(=O)c1c(C)[nH]c(/C=C2\C(=O)Nc3ccc(F)cc32)c1C` [SUNITINIB], the IC50 in the assay on D-336MG, in the assay with Daudi, with EB-3, in the assay on MC-CAR, in the assay on NCI-H2171 and with NCI-H322M was more than 8 µM throughout. For the same compound, the half-maximal inhibitory concentration (IC50) with NCI-H716 was more than 8 µM; with NCI-H748, more than 8 µM; in the assay with PF-382, 3.45 µM; with REH, more than 8 µM; in the assay on RL, more than 8 µM; in the assay with Raji, more than 8 µM. Further, the IC50 in the assay on SCLC-21H is more than 8 µM; in the assay on SIG-M5, 1.37 µM; with ARH-77 it was 7.54 µM; in the assay with BC1 cell line, 7.25 µM; in the assay on CAL-148 it was more than 8 µM; in the assay with THP-1, more than 8 µM. The compound further came in with an IC50 with WSU-NHL of more than 8 µM.
In the case of `COc1cc(N2CCN(C)CC2)ccc1Nc1ncc2c(n1)N(C)c1ccccc1C(=O)N2C`, the IC50 in the assay on D-336MG was 0.769 µM; in the assay on Daudi, more than 8 µM; in the assay on EB-3, more than 8 µM; in the assay with MC-CAR it was more than 8 µM; in the assay with NCI-H2171, more than 8 µM; with NCI-H322M it was more than 8 µM. Besides, the IC50 in the assay with NCI-H716 is more than 8 µM; in the assay with NCI-H748 it was more than 8 µM; in the assay with PF-382, 4.94 µM; in the assay with REH it was more than 8 µM; in the assay on RL, 2.78 µM; in the assay on Raji, more than 8 µM. Also, the half-maximal inhibitory concentration (IC50) with SCLC-21H was more than 8 µM; in the assay on SIG-M5, 5.36 µM; in the assay with ARH-77, more than 8 µM; with BC1 cell line, more than 8 µM; in the assay with CAL-148, more than 8 µM; with THP-1, more than 8 µM. Moreover, the half-inhibitory concentration (IC50) in the assay on WSU-NHL is more than 8 µM.
As for `OCCCNc1cc(-c2ccnc(Nc3cccc(Cl)c3)n2)ccn1`, the half-maximal inhibitory concentration (IC50) in the assay on D-336MG is 0.109 µM; in the assay on Daudi, 0.0553 µM; in the assay on EB-3, 0.0648 µM; with MC-CAR, 0.121 µM; in the assay on NCI-H2171, more than 0.256 µM; in the assay with NCI-H322M, more than 0.256 µM. Further, the concentration for half-maximal inhibition (IC50) with NCI-H716 was more than 0.256 µM; with NCI-H748, 0.0764 µM; in the assay on PF-382 it was 0.104 µM; in the assay on REH, more than 0.256 µM; in the assay with RL, more than 0.256 µM; with Raji, 0.0421 µM. Also, the IC50 in the assay with SCLC-21H was more than 0.256 µM; in the assay with SIG-M5 it was 0.0299 µM; in the assay with ARH-77, 0.0819 µM; in the assay with BC1 cell line it was 0.0695 µM; with CAL-148, 0.199 µM; with THP-1 it was more than 0.256 µM. Further, the IC50 in the assay on WSU-NHL is more than 0.256 µM.
For `COc1cc2ncn(-c3cc(OCc4ccccc4C(F)(F)F)c(C(N)=O)s3)c2cc1OC` [GW843682X], the IC50 is more than 0.256 µM with D-336MG; 0.0347 µM in the assay on Daudi; more than 0.256 µM with EB-3; 0.0761 µM in the assay on MC-CAR; more than 0.256 µM in the assay on NCI-H2171; more than 0.256 µM in the assay on NCI-H322M. For the same compound, the half-inhibitory concentration (IC50) with NCI-H716 is more than 0.256 µM; with NCI-H748 it was more than 0.256 µM; in the assay with PF-382, 0.0334 µM; in the assay on REH, more than 0.256 µM; in the assay on RL it was more than 0.256 µM; in the assay on Raji it was more than 0.256 µM. Also, the half-inhibitory concentration (IC50) in the assay on SCLC-21H is 0.0902 µM; with SIG-M5 it was 0.021 µM; in the assay on ARH-77 it was 0.0581 µM; in the assay on BC1 cell line, 0.244 µM; in the assay with CAL-148, 0.0907 µM; in the assay on THP-1, more than 0.256 µM. In the assay on WSU-NHL, this compound returned a half-inhibitory concentration (IC50) of more than 0.256 µM.
Consider `CC(=O)O[C@H]1C(=O)[C@@]2(C)[C@H]([C@H](OC(=O)c3ccccc3)[C@]3(O)C[C@H](OC(=O)[C@H](O)[C@@H](NC(=O)c4ccccc4)c4ccccc4)C(C)=C1C3(C)C)[C@]1(OC(C)=O)CO[C@@H]1C[C@@H]2O` [PACLITAXEL], for which the IC50 was more than 0.102 µM in the assay with D-336MG; 0.0171 µM with Daudi; more than 0.102 µM in the assay on EB-3; 0.0233 µM in the assay on MC-CAR; more than 0.102 µM with NCI-H2171; more than 0.102 µM in the assay on NCI-H322M. Moreover, the half-maximal inhibitory concentration (IC50) in the assay on NCI-H716 is more than 0.102 µM; in the assay with NCI-H748 it was more than 0.102 µM; with PF-382 it was 0.0238 µM; in the assay with REH it was more than 0.102 µM; in the assay on RL it was more than 0.102 µM; with Raji, more than 0.102 µM. The IC50 in the assay with SCLC-21H is 0.0588 µM; in the assay with SIG-M5 it was 0.00327 µM; with ARH-77, 0.026 µM; in the assay with BC1 cell line, more than 0.102 µM; in the assay with CAL-148, 0.0544 µM; in the assay with THP-1, more than 0.102 µM. The IC50 in the assay with WSU-NHL was more than 0.102 µM.
On to `COc1cc(-c2nn([C@H]3CC[C@H](N4CCN(C(C)=O)CC4)CC3)c3ncnc(N)c23)ccc1NC(=O)c1cc2ccccc2n1C`, for which the IC50 in the assay with D-336MG was 0.212 µM; with Daudi, more than 5.12 µM; in the assay with EB-3 it was more than 5.12 µM; with MC-CAR, more than 5.12 µM; in the assay on NCI-H2171, more than 5.12 µM; in the assay on NCI-H322M, more than 5.12 µM. The half-maximal inhibitory concentration (IC50) in the assay with NCI-H716, in the assay with NCI-H748, in the assay with PF-382, in the assay with REH, in the assay on RL and in the assay on Raji was more than 5.12 µM throughout. Moreover, the IC50 in the assay on SCLC-21H, with SIG-M5, in the assay with ARH-77, in the assay on BC1 cell line, in the assay on CAL-148 and with THP-1 was more than 5.12 µM each time. The IC50 in the assay with WSU-NHL is more than 5.12 µM.
As to `CC[C@H](CO)Nc1nc(NCc2ccccc2)c2ncn(C(C)C)c2n1` [SELICICLIB], the IC50 with D-336MG, with Daudi, in the assay with EB-3, with MC-CAR, in the assay on NCI-H2171 and in the assay on NCI-H322M was more than 16 µM each time. In addition, the IC50 in the assay with NCI-H716 was more than 16 µM; in the assay with NCI-H748 it was more than 16 µM; in the assay on PF-382, more than 16 µM; in the assay on REH, more than 16 µM; with RL, more than 16 µM; with Raji, 13.8 µM. The half-maximal inhibitory concentration (IC50) with SCLC-21H, in the assay on SIG-M5, in the assay on ARH-77, with BC1 cell line, in the assay on CAL-148 and with THP-1 was more than 16 µM each time. The same compound came in with an IC50 with WSU-NHL of more than 16 µM.
Consider `COc1cc2ncn(-c3cc(OCc4ccccc4S(C)(=O)=O)c(C#N)s3)c2cc1OC` [GSK-319347A], for which the IC50 with D-336MG, in the assay with Daudi, in the assay on EB-3, in the assay on MC-CAR, in the assay with NCI-H2171 and with NCI-H322M was more than 5 µM each time. In addition, the half-inhibitory concentration (IC50) in the assay on NCI-H716, with NCI-H748, in the assay on PF-382, in the assay with REH, in the assay on RL and with Raji was more than 5 µM each time. The IC50 in the assay on SCLC-21H, in the assay with SIG-M5, in the assay on ARH-77, in the assay on BC1 cell line, with CAL-148 and with THP-1 was more than 5 µM each time. The IC50 in the assay on WSU-NHL was more than 5 µM.
As for `N[C@@H](CSC(c1ccccc1)(c1ccccc1)c1ccccc1)C(=O)O` [S-TRITYL-L-CYSTEINE], the concentration for half-maximal inhibition (IC50) was more than 5.12 µM in the assay with D-336MG; 1.17 µM with Daudi; more than 5.12 µM in the assay with EB-3; 1.21 µM in the assay with MC-CAR; more than 5.12 µM in the assay on NCI-H2171; more than 5.12 µM in the assay with NCI-H322M. The IC50 in the assay with NCI-H716 was more than 5.12 µM; in the assay on NCI-H748, more than 5.12 µM; in the assay on PF-382, 1.67 µM; in the assay on REH, more than 5.12 µM; in the assay with RL, more than 5.12 µM; in the assay on Raji it was 3.6 µM. Moreover, the 50% inhibitory concentration (IC50) with SCLC-21H was 2.83 µM; in the assay on SIG-M5 it was 2.77 µM; in the assay on ARH-77, 3.54 µM; in the assay on BC1 cell line, more than 5.12 µM; with CAL-148, 4.35 µM; in the assay on THP-1, more than 5.12 µM. The compound also displayed an IC50 with WSU-NHL of more than 5.12 µM.
For the compound `C#Cc1cccc(Nc2ncnc3cc(OCCOC)c(OCCOC)cc23)c1` [ERLOTINIB], the IC50 in the assay with D-336MG, in the assay with Daudi, in the assay with EB-3, in the assay on MC-CAR, in the assay with NCI-H2171 and in the assay with NCI-H322M was more than 2 µM each time. Moreover, the IC50 in the assay with NCI-H716, in the assay with NCI-H748, in the assay with PF-382, with REH, in the assay on RL and in the assay on Raji was more than 2 µM each time. Moreover, the IC50 with SIG-M5, in the assay on ARH-77, in the assay with BC1 cell line, in the assay with THP-1 and in the assay with WSU-NHL was more than 2 µM in each case.

As a reminder, the IC50 is the concentration at which inhibition is half-maximal. Low readings indicate higher potency, high ones lower potency.

The values are drawn from ChEMBL document CHEMBL1201861, “Genomics of Drug Sensitity in Cancer screening data, Wellcome Trust Sanger Institute”.
